Structures are written as SMILES.

Experimental findings from patent US20190351012A1, “TARGETING OF INTERFERON-STIMULATED GENE EXPRESSION TO TREAT INTERFERONOPATHIES” (New York University, priority 2018, published 2019) are described below.

The test system of assay [1] is ISG transcription in HeLa cell nuclei. The assay can be described thus: Run-on nuclear transcription in HeLa nuclei. It is filed as cell-based, human. An excerpt:
FIG. 2. […] (A) Nuclear extracts from HEK293T cells expressing activated recombinant ISGF3 (STAT1, STAT2, IRF9 and JAK1) or transfected with vector (Ctl) were programmed with G6TI-CAT (G6TI) or p107 (ISG54) templates. Radiolabeled RNA transcripts were resolved by polyacrylamide-urea gel electrophoresis. Arrow and arrowhead indicate position of the transcripts from G6TI-CAT and p107, respectively. (B) HeLa cells were either left untreated or treated with IFN-α in the absence or presence of TSA (TSA in vivo) before nuclei were isolated for run-on transcription. Where indicated, TSA was added to the elongation reaction in vitro (TSA in vitro). Specific signals from γ-actin, ISG15, ISG56, 6-16, 9-27, IRF9 and GBP transcription were quantified following filter hybridization and normalized to the signal for GAPDH, arbitrarily set to 100. […] Mononucleosomal DNA fraction was purified from MNase-digested nuclei and analyzed for nucleosome positions by PCR quantitation of protected fragments. All samples were quantified by real-time PCR, except the—53—+1 ISG54 fragment, which was quantified by gel electrophoresis (C). […]
Run-off transcription is largely a measure of transcriptional […]. […] Nuclei were isolated from cells untreated or treated with IFNα, pulse-labeled in vitro with radioactive nucleotides, and specific transcriptional elongation was quantified by filter hybridization (FIG. 2B). […]

Assay [2] deals with H3K4me3 at ISG54, ISG56 and 6-16 promoters. Briefly: ChIP for H3K4me3 at ISG promoters in 2fTGH cells. Type of assay: cell-based, human. Particulars: co-treatment with IFN-α. On the procedure: FIG. 3. […] (A) 2fTGH cells were either left untreated or treated with IFN-α in the absence or presence of TSA for the indicated time (min). ChIP assays were performed with antibodies against Pol II and recovered ISG56 promoter sequences were quantified by real-time PCR relative to input and represented as fold induction relative to untreated cells. (B) As in A, except that antibodies against phosphorylated Pol II at serine-5 in the CTD were used for immunoprecipitation, following 60 min IFN-α treatments. Recovered ISG54, ISG56 and ISG15 promoter sequences were quantified by real-time PCR relative to input and represented as fold induction relative to untreated cells. (C) As in A, except that cells were treated with IFN-α for 60 min and proximal, middle and distal fragments along the ISG54 gene (left panel) and ISG56 gene (right panel) were assayed. (D) As in A, except that antibodies against trimethylated lysine-4 on histone H3 were used. Promoter regions of ISG54, ISG56 and 6-16 genes were quantified by real-time PCR and reported as fold over the signal detected with a non-specific antibody.
Chromatin immunoprecipitation was performed as follows. […] Immunoprecipitated DNA sequences were recovered by alcohol precipitation and quantified by real-time PCR compared with input genomic DNA. […]

As to `CC(/C=C/C(=O)NO)=C\[C@@H](C)C(=O)c1ccc(N(C)C)cc1` [TSA, Trichostatin A], the “housekeeping and ISG transcription in nuclear run-on” value in assay [1] (TSA added to the in vitro run-on reaction) is recorded as “failed to affect”. The “ISG transcription in isolated nuclei” value in assay [1] (cells stimulated with IFN in the presence of TSA (TSA in vivo)) is “impaired”. Besides, the “level of H3K4me3 on ISG promoters” value in assay [2] is listed as “neither IFN stimulation nor TSA co-treatment significantly affected”.
